{"source": "patent US20250302720A1", "about": "“PEPTIDE-BASED HAIR TREATMENT” (Sederma, priority 2020, published 2025)", "test_system": "Normal human melanocytes (NHM)", "test": "Reduction of the ROS quantity in NHM (DCFH-DA probe, with or without H2O2 stress)", "assay_type": "cell-based", "settings": "for ROS quantity, variation: 24 h, vs control, n = 3", "method": "Normal human melanocytes (NHM) almost at confluence are brought into contact with the peptide according to the invention for 24 hours. At the end of this contact, the cells are contacted with a DCFH-DA probe which is inserted into these cells. After rinsing to remove the excess probe, the cells are placed in contact with H2O2 to mimic oxidative stress. A case without oxidative stress is also realized. The reaction of H2O2 with the probe in the cell is measured by fluorescence. An estimate of the quantity of cells is carried out in parallel to harmonize the results.", "note": "Residues, ends and D or L forms follow the SMILES beside them.", "data": [{"smiles": "CCCCCCCCCCCCCCCC(=O)N1CCC[C@H]1C(=O)N1CCC[C@H]1C(=O)O", "note": "[Pal-PP-OH, palmitoyl-prolyl-proline] (HELM PEPTIDE1{[CCCCCCCCCCCCCCCC(=O)[*:2]].P.P}$$$$V2.0)", "values": [{"measurement": "ROS quantity, variation", "setting": "10 ppm, after the H2O2 stress", "value": "−25%; p < 0.01"}, {"measurement": "ROS quantity, variation", "setting": "10 ppm, without H2O2 stress (basal state)", "value": "−23%; p < 0.01"}, {"measurement": "ROS quantity, variation", "setting": "12.5 ppm, after the H2O2 stress", "value": "−33%; p < 0.01"}, {"measurement": "ROS quantity, variation", "setting": "12.5 ppm, without H2O2 stress (basal state)", "value": "−24%; p < 0.01"}, {"measurement": "reduction of the production of intracellular peroxide", "setting": "during oxidative stress, vs. control", "value": 33, "unit": "%"}]}]}
